Experimental data taken from patent US6552027B2, “Quinazolines for treating brain tumor” (Parker Hughes Institute, priority 1998, dated 2003).
Where “and” joins values, the source holds several entries; their conditions need not be identical. Equal entries are not always repeated. Where two headings read alike, the source gives them in different places.

Assays:
[1] = test system: NALM-6 leukemia cells; experiment: MTT cytotoxicity assay, EGF-R negative leukemia cells (negative control line); format: cell-based
Method: Triplicate wells were used for each treatment.
Human glioblastoma cell line U373 was obtained from American.
The percent survival was calculated using the formula: [formula]

[2] = test system: U373 glioma cells; experiment: Morphology by anti-α-tubulin / TOTO-3 immunofluorescence; format: cell-based, human; conditions: 25 μg/ml, 24 hours
Method: Cells were fixed in paraformaldehyde, immunostained with monoclonal antibody to EGF-R (green fluorescence) and counterstained with TOTO-3 (blue fluorescence) The immunostained cells were analyzed with a laser scanning confocal microscope. Blue fluorescence represents nuclei.
Immunofluorescence was used to (i) examine the surface expression of EGF-receptor (EGF-R) on brain tumor cells, (ii) evaluate the uptake of EGF-P154 by brain tumor cells and (iii) examine the morphologic features of EGF-P154 treated brain tumor cells.
At the end of the incubation, cells were washed twice with PBS and fixed in 2% paraformaldehyde. The cells were permeabilized and non-specific binding sites were blocked with 2.5% BSA in PBS containing 0.1% Triton X-100 for 30 minutes. […] After rinsing with PBS, cells were incubated for 1 hour with a mixture of a goat anti-mouse IgG antibody conjugated to FITC (Amersham Corp., Arlington Heights, Ill.) and donkey anti-rabbit IgG conjugated to Texas Red (Amersham Corp.) at a dilution of 1:40 in PBS. Similarly, tubulin expression was examined by immunofluorescence using a monoclonal antibody against α-tubulin (Sigma Chemical Co, St. Louis, Mo.) at a dilution of 1:1000 and an anti-mouse IgG conjugated to FITC. Cells were washed in PBS and counterstained with toto-3 (Molecular Probes Inc., Eugene, Oreg.) for 10 minutes at a dilution of 1:1000. […]

[3] = test system: U373 human glioblastoma cell line; experiment: MTT cytotoxicity assay, U373 glioblastoma cells; conditions: U373
Method: (§1) The cytotoxicity assay of various compounds against human brain tumor cell lines was performed using the MTT (3-[4,5-dimethylthiazol-2-yl]-2,5-diphenyl tetrazolium bromide) assay (Boehringer Mannheim Corp., Indianapolis, Ind.). Briefly, exponentially growing brain tumor cells were seeded into a 96-well plate at a density of 2.5×10^4 cells/well and incubated for 36 hours at 37° C. prior to drug exposure. […] Triplicate wells were used for each treatment.
Human glioblastoma cell line U373 was obtained from American. Type Culture Collection (Rockville, Md.) and maintained as a continuous cell line in Dulbecco's modified Eagles's medium supplemented with 10% fetal bovine serum and antibiotics. The B-lineage acute lymphoblastic leukemia cell line Nalm-6 was used as a negative control.
(§2) The cells were incubated with the various compounds for 24-36 hours at 37° C. in a humidified 5% CO2 atmosphere. To each well, 10 μl of MTT (0.5 mg/ml final concentration) was added and the plates were incubated at 37° C. for 4 hours to allow MTT to form formazan crystals by reacting with metabolically active cells. The formazan crystals were solubilized overnight at 37° C. in a solution containing 10% SDS in 0.01 M HCl. The absorbence of each well was measured in a microplate reader (Labsystems) at 540 nm and a reference wavelength of 690 nm. To translate the OD540 values into the number of live cells in each well, the OD540 values were compared to those on standard OD540—versus—cell number curves generated for each cell line. The percent survival was calculated using the formula: [formula]
(§3) The IC50 values were calculated by non linear regression analysis.

[4] = test system: U373 human glioblastoma cells; experiment: SCID mouse xenograft model of human glioblastoma; conditions: for in vivo anti-tumor activity / tumor-free survival (in words): daily i.p. doses for 10 days starting the day after inoculation
Method: The right hind legs of the CB. 17 SCID mice were inoculated subcutaneously (s.c.) with 0.5×10^6 U373 human glioblastoma cells in 0.2 mL PBS. […] Daily treatments with PBS, unconjugated EGF (1 mg/kg/dose), and unconjugated WHI-P154 (1 mg/kg/dose) were used as controls. Mice were monitored daily for health status and tumor growth, and were sacrificed if they became moribund developed tumors which impeded their ability to attain food or water, at the end of the 3-month observation period. Tumors were measured using Vernier calipers twice weekly, and the tumor volumes were calculated according to the following formula (Friedman, S. H., mDolan, M. E., Pegg, A. E., Marcelli, S., Keir, S., Catino, J. J., Binger, D. D., Schold, S. C., Jr., 1995, Cancer Res., 55:2853-2857): [formula]
For histopathologic studies, tissues were fixed in 10% neutral buffered formalin, dehydrated, and embedded in paraffin by routine methods. Glass slides with affixed 6 micron tissue sections were prepared and stained with hematoxylin/eosin. Primary endpoints of interest were tumor growth and tumor-free survival outcome. Estimation of life table outcome and comparisons of outcome between groups were done, as previously reported (Waurzyniak, et al., 1997, Clinical Cancer Research 3:881-890; Anderson, et al., 1995, Cancer Res. 55:1321-1327; Uckun, et al., 1997, J. Clin. Oncol. 15:2214-2221).

[5] = test system: U87 human glioblastoma cell line; experiment: MTT cytotoxicity assay, U87 glioblastoma cells; format: cell-based
Method: as §1, §2, §3
Apoptosis was also evaluated using the nick-end-labeling assay, as described for Example 3.

[6] = test system: U373 glioblastoma cells; experiment: Uptake and internalization by immunofluorescence and confocal microscopy; format: cell-based, human; conditions: 5 μg/ml
Method: At the end of the incubation, cells were washed twice with PBS and fixed in 2% paraformaldehyde. The cells were permeabilized and non-specific binding sites were blocked with 2.5% BSA in PBS containing 0.1% Triton X-100 for 30 minutes. […] After rinsing with PBS, cells were incubated for 1 hour with a mixture of a goat anti-mouse IgG antibody conjugated to FITC (Amersham Corp., Arlington Heights, Ill.) and donkey anti-rabbit IgG conjugated to Texas Red (Amersham Corp.) at a dilution of 1:40 in PBS. Similarly, tubulin expression was examined by immunofluorescence using a monoclonal antibody against α-tubulin (Sigma Chemical Co, St. Louis, Mo.) at a dilution of 1:1000 and an anti-mouse IgG conjugated to FITC. Cells were washed in PBS and counterstained with toto-3 (Molecular Probes Inc., Eugene, Oreg.) for 10 minutes at a dilution of 1:1000. Cells were washed again with PBS and the coverslips were mounted with Vectashield (Vector Labs, Burlingame, Calif.) and viewed with a confocal microscope (Bio-Rad MRC 1024) mounted in a Nikon Labhophot upright microscope.

[7] = test system: glioblastoma cells; experiment: In situ apoptosis assay (TdT-mediated dUTP nick-end labeling); format: cell-based, human; conditions: 36 hours after treatment; FIGS. 6D and 6E
Method: After a 36 hour incubation at 37° C. in a humidified 5% CO2 incubator, the supernatants were carefully aspirated and the cells were treated for 1-2 minutes with 0.1% trypsin. The detached cells were collected into a 15 ml centrifuge tube, washed with medium and pelleted by centrifugation at 1000 rpm for 5 minutes. Cells were resuspended in 50 μl of PBS, transferred to poly-L-lysine coated coverslips and allowed to attach for 15 minutes. The cells were washed once with PBS and incubated with equilibration buffer for 10 minutes at room temperature.
After removal of the equilibration buffer, cells were incubated for 1 hour at 37° C. with the reaction mixture containing terminal deoxynucleotidyl transferase (TdT) and […] for labeling of exposed 3′-hydroxyl ends of fragmented nuclear DNA. The cells were washed with PBS and incubated with anti-digoxigenin antibody conjugated to FITC for 1 hour at room temperature to detect the incorporated dUTP. After washing the cells with PBS, the coverslips were mounted onto slides with Vectashield containing propidium iodide (Vector Labs, Burlingame, Calif.) and viewed with a confocal laser scanning microscope. […] In control reactions, the TdT enzyme was omitted from the reaction mixture.

[8] = test system: U373 cells; experiment: EGF-stimulated cell adhesion to poly-L-lysine coated plates; format: cell-based, human; conditions: stimulation with 250 ng/ml EGF, baseline 33.2±5.2%, P<0.02
Method: To study the effects of quinazoline derivatives on EGF-stimulated cell adhesion, the trypsinized and recovered cells were incubated with varying concentrations ranging from 1 μM to 50 μM of quinazolines for 4 hours at 37° C., then stimulated with 250 ng/ml of EGF and examined for their ability to adhere to poly-L-lysine coated plates.
For the EGF stimulation experiments, the cells were plated in the presence of 250 ng/ml of EGF and allowed to adhere for 1 hour. The non-adherent cells were removed by gently washing the cells with PBS and then the adherent fraction was quantitated as described above for Example 6.

[9] = read-out: IC50 value derived from the composite cell survival curve
[10] = 500 μg/kg/day×10 days i.p., 5 mice

EGF-P154: WHI-P154 attached to recombinant human EGF by photochemical conjugation with the crosslinking agent Sulfo-SANPAH
cytotoxicity against EGF-R negative leukemia cells (in words) [1]: selective cytotoxicity to EGF-R positive glioblastoma cell lines only
morphologic changes (in words) [2]: complete disruption of microtubules, marked shrinkage, nuclear fragmentation and inability to adhere to the substratum
IC50 [3, 9]: 881 nM
IC50 ([3]; read-out: mean IC50 value, 3 independent experiments, FIG. 5A): 813 nM and 811 nM
IC50 ([3]; read-out: range of IC50 values, 3 independent experiments): 588 to 950 nM
average size (mean±SE) of tumors at 40 days ([4]; 500 μg/kg/day dose level, P=0.0003): 37.6±10.7 mm^3
average size (mean±SE) of tumors at 20 days ([4]; 500 μg/kg/day dose level, P=0.002): 1.0±1.1 mm^3
delay in reaching the 50 mm^3 tumor size versus control mice (PBS, EGF, or WHI-P154) ([4]; 500 μg/kg/day×10 days): approximately 11 days
time at which tumors reached a size of 50 mm^3 ([4]; 500 μg/kg/day×10 days i.p.): 47.4 ± 7.1 days
median tumor-free survival [4, 10]: 33 days
time within which all mice developed tumors [4, 10]: ≤ 40 days
mice alive and free of detectable tumors for >58 days ([4]; 1 mg/kg/day, 10 consecutive days): 40%
enhancement of in vivo anti-tumor activity of WHI-P154 by conjugation to EGF ([4]; 1 mg/kg/day×10 days, 53.2 nmol vs 2.9 nmol of WHI-P154): > 8 fold
tumor size in the remaining 60% of the mice ([4]; 1 mg/kg/day×10 days, 58-day observation period): ≤ 50 mm^3
toxicity of the applied dose levels (in words) ([4]; 0.5 and 1 mg/kg/day×10 days i.p.): nontoxic
in vivo anti-tumor activity / tumor-free survival (in words) [4]: significantly improved tumor-free survival in a dose-dependent fashion
in vivo anti-tumor activity / tumor-free survival (in words) ([4]; listed as EGF-P54): significant in vivo anti-tumor activity
IC50 ([5]; 3 independent experiments, FIG. 5A, read-out: mean IC50 value): 620 ± 97 nM
IC50 ([5]; 3 independent experiments, read-out: range of IC50 values): 487 to 761 nM
IC50 [5, 9]: 601 nM
time at which internalized complexes were detected in the perinuclear region [6]: ≤ 30 min
apoptotic nuclei by digoxigenin-dUTP incorporation (in words) [7]: many apoptotic yellow nuclei

EGF: Recombinant human EGF produced in E. coli; used unconjugated as control and as adhesion stimulus
time at which tumors reached a size of 50 mm^3 ([4]; 1 mg/kg/day×10 days i.p.): 34.0 ± 3.0 days
median tumor-free survival ([4]; 1 mg/kg/day×10 days i.p., N=5): 23 days
in vivo anti-tumor activity / tumor-free survival (in words) [4]: inability
fraction capable of adhering to poly-L-lysine coated plates [8]: 58.48±4.7%
